Experimental data from PubChem BioAssay AID1963433 (Molecular Pharmacology Branch, DTP, NCI, 2024).

System: 772245-204-R-J1-PDC complex spheroid growth
Assay: Anticancer human tumor 772245-204-R-J1-PDC patient-derived rhabdomyosarcoma cell line growth inhibition [Asc]
Settings: for IC50: curve of first compound; for viability, T/C: stronger effect = lower value
Summary of the method: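 Spheroid model: tumor line + HUVEC + hMSC. Single agents and combinations; top conc. at/near clinical Cmax (10 microM if undetermined), half-log dilutions. DMSO stocks at 800-fold test concentration.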
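Also: compound exposure lasted seven days.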
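For viability, T/C in this document: 100% = DMSO vehicle control viability.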

Cc1nc(N2CCC3(CC2)COC(C)C3N)c(CO)nc1Sc1ccnc(N)c1Cl (centres undefined) + CCN1C(C(=O)NC23CCC(C(=O)O)(CC2)CC3)C(c2cccc(Cl)c2F)C2(C(=O)Nc3cc(Cl)ccc32)C12CCCCC2
IC50 (second compound 0.03 µM): > 3 µM | IC50 (second compound 0.0949 µM): > 3 µM | IC50 (second compound 0.3 µM): > 3 µM | IC50 (second compound 0.949 µM): > 3 µM | IC50 (second compound 3 µM): 2.74 µM | viability, T/C (second compound 0.03 µM, first compound 0.00949 µM): 94.9% | viability, T/C (second compound 0.03 µM, first compound 0.03 µM): 120% | viability, T/C (second compound 0.03 µM, first compound 0.0949 µM): 108% | viability, T/C (second compound 0.03 µM, first compound 0.3 µM): 102% | viability, T/C (second compound 0.03 µM, first compound 0.949 µM): 76.9% | viability, T/C (second compound 0.03 µM, first compound 3 µM): 56.9% | viability, T/C (second compound 0.0949 µM, first compound 0.00949 µM): 97.1% | viability, T/C (second compound 0.0949 µM, first compound 0.03 µM): 100% | viability, T/C (second compound 0.0949 µM, first compound 0.0949 µM): 119% | viability, T/C (second compound 0.0949 µM, first compound 0.3 µM): 93.3% | viability, T/C (second compound 0.0949 µM, first compound 0.949 µM): 84.1% | viability, T/C (second compound 0.0949 µM, first compound 3 µM): 51% | viability, T/C (second compound 0.3 µM, first compound 0.00949 µM): 111% | viability, T/C (second compound 0.3 µM, first compound 0.03 µM): 110% | viability, T/C (second compound 0.3 µM, first compound 0.0949 µM): 88.3% | viability, T/C (second compound 0.3 µM, first compound 0.3 µM): 85.3% | viability, T/C (second compound 0.3 µM, first compound 0.949 µM): 77.8% | viability, T/C (second compound 0.3 µM, first compound 3 µM): 52% | viability, T/C (second compound 0.949 µM, first compound 0.00949 µM): 113% | viability, T/C (second compound 0.949 µM, first compound 0.03 µM): 109% | viability, T/C (second compound 0.949 µM, first compound 0.0949 µM): 109% | viability, T/C (second compound 0.949 µM, first compound 0.3 µM): 97.5% | viability, T/C (second compound 0.949 µM, first compound 0.949 µM): 75.7% | viability, T/C (second compound 0.949 µM, first compound 3 µM): 52% | viability, T/C (second compound 3 µM, first compound 0.00949 µM): 75.6% | viability, T/C (second compound 3 µM, first compound 0.03 µM): 92.5% | viability, T/C (second compound 3 µM, first compound 0.0949 µM): 85.7% | viability, T/C (second compound 3 µM, first compound 0.3 µM): 71.9% | viability, T/C (second compound 3 µM, first compound 0.949 µM): 62.6% | viability, T/C (second compound 3 µM, first compound 3 µM): 48.5%

C#Cc1c(F)ccc2cc(O)cc(-c3ncc4c(N5CC6CCC(C5)N6)nc(OCC56CCCN5CC(F)C6)nc4c3F)c12 (centres undefined) + CNC(C)C(=O)NC1CN(S(=O)(=O)c2cccc(S(=O)(=O)N3CCC4CCC(C(=O)NC(c5ccccc5)c5ccccc5)N4C(=O)C(NC(=O)C(C)NC)C3)c2)CCC2CCC(C(=O)NC(c3ccccc3)c3ccccc3)N2C1=O
IC50 (second compound 0.00316 µM): > 10 µM | IC50 (second compound 0.01 µM): > 10 µM | IC50 (second compound 0.0316 µM): > 10 µM | IC50 (second compound 0.1 µM): > 10 µM | IC50 (second compound 0.316 µM): > 10 µM | IC50 (second compound 1 µM): > 10 µM | viability, T/C (second compound 0.00316 µM, first compound 0.0316 µM): 104% | viability, T/C (second compound 0.00316 µM, first compound 0.1 µM): 104% | viability, T/C (second compound 0.00316 µM, first compound 0.316 µM): 92.4% | viability, T/C (second compound 0.00316 µM, first compound 1 µM): 102% | viability, T/C (second compound 0.00316 µM, first compound 3.16 µM): 89.2% | viability, T/C (second compound 0.00316 µM, first compound 10 µM): 79% | viability, T/C (second compound 0.01 µM, first compound 0.0316 µM): 101% | viability, T/C (second compound 0.01 µM, first compound 0.1 µM): 88% | viability, T/C (second compound 0.01 µM, first compound 0.316 µM): 91% | viability, T/C (second compound 0.01 µM, first compound 1 µM): 104% | viability, T/C (second compound 0.01 µM, first compound 3.16 µM): 86.5% | viability, T/C (second compound 0.01 µM, first compound 10 µM): 64.1% | viability, T/C (second compound 0.0316 µM, first compound 0.0316 µM): 92.7% | viability, T/C (second compound 0.0316 µM, first compound 0.1 µM): 93.8% | viability, T/C (second compound 0.0316 µM, first compound 0.316 µM): 89.6% | viability, T/C (second compound 0.0316 µM, first compound 1 µM): 101% | viability, T/C (second compound 0.0316 µM, first compound 3.16 µM): 107% | viability, T/C (second compound 0.0316 µM, first compound 10 µM): 71.8% | viability, T/C (second compound 0.1 µM, first compound 0.0316 µM): 100% | viability, T/C (second compound 0.1 µM, first compound 0.1 µM): 93.4% | viability, T/C (second compound 0.1 µM, first compound 0.316 µM): 95.8% | viability, T/C (second compound 0.1 µM, first compound 1 µM): 89% | viability, T/C (second compound 0.1 µM, first compound 3.16 µM): 101% | viability, T/C (second compound 0.1 µM, first compound 10 µM): 67.8% | viability, T/C (second compound 0.316 µM, first compound 0.0316 µM): 94.2% | viability, T/C (second compound 0.316 µM, first compound 0.1 µM): 67.8% | viability, T/C (second compound 0.316 µM, first compound 0.316 µM): 82% | viability, T/C (second compound 0.316 µM, first compound 1 µM): 96.5% | viability, T/C (second compound 0.316 µM, first compound 3.16 µM): 92.4% | viability, T/C (second compound 0.316 µM, first compound 10 µM): 68% | viability, T/C (second compound 1 µM, first compound 0.0316 µM): 78.9% | viability, T/C (second compound 1 µM, first compound 0.1 µM): 96.2% | viability, T/C (second compound 1 µM, first compound 0.316 µM): 93.3% | viability, T/C (second compound 1 µM, first compound 1 µM): 83% | viability, T/C (second compound 1 µM, first compound 3.16 µM): 80% | viability, T/C (second compound 1 µM, first compound 10 µM): 63.9%

Cc1nc(N2CCC3(CC2)COC(C)C3N)c(CO)nc1Sc1ccnc(N)c1Cl (centres undefined) + CNC(C)C(=O)NC1CN(S(=O)(=O)c2cccc(S(=O)(=O)N3CCC4CCC(C(=O)NC(c5ccccc5)c5ccccc5)N4C(=O)C(NC(=O)C(C)NC)C3)c2)CCC2CCC(C(=O)NC(c3ccccc3)c3ccccc3)N2C1=O
IC50 (second compound 0.00316 µM): > 3 µM | IC50 (second compound 0.01 µM): > 3 µM | IC50 (second compound 0.0316 µM): > 3 µM | IC50 (second compound 0.1 µM): > 3 µM | IC50 (second compound 0.316 µM): > 3 µM | IC50 (second compound 1 µM): > 3 µM | viability, T/C (second compound 0.00316 µM, first compound 0.00949 µM): 101% | viability, T/C (second compound 0.00316 µM, first compound 0.03 µM): 105% | viability, T/C (second compound 0.00316 µM, first compound 0.0949 µM): 109% | viability, T/C (second compound 0.00316 µM, first compound 0.3 µM): 105% | viability, T/C (second compound 0.00316 µM, first compound 0.949 µM): 115% | viability, T/C (second compound 0.00316 µM, first compound 3 µM): 92.9% | viability, T/C (second compound 0.01 µM, first compound 0.00949 µM): 108% | viability, T/C (second compound 0.01 µM, first compound 0.03 µM): 93.4% | viability, T/C (second compound 0.01 µM, first compound 0.0949 µM): 107% | viability, T/C (second compound 0.01 µM, first compound 0.3 µM): 117% | viability, T/C (second compound 0.01 µM, first compound 0.949 µM): 102% | viability, T/C (second compound 0.01 µM, first compound 3 µM): 75.4% | viability, T/C (second compound 0.0316 µM, first compound 0.00949 µM): 104% | viability, T/C (second compound 0.0316 µM, first compound 0.03 µM): 99.3% | viability, T/C (second compound 0.0316 µM, first compound 0.0949 µM): 105% | viability, T/C (second compound 0.0316 µM, first compound 0.3 µM): 101% | viability, T/C (second compound 0.0316 µM, first compound 0.949 µM): 88.3% | viability, T/C (second compound 0.0316 µM, first compound 3 µM): 78.6% | viability, T/C (second compound 0.1 µM, first compound 0.00949 µM): 105% | viability, T/C (second compound 0.1 µM, first compound 0.03 µM): 99.1% | viability, T/C (second compound 0.1 µM, first compound 0.0949 µM): 88.4% | viability, T/C (second compound 0.1 µM, first compound 0.3 µM): 98.6% | viability, T/C (second compound 0.1 µM, first compound 0.949 µM): 99.6% | viability, T/C (second compound 0.1 µM, first compound 3 µM): 75.9% | viability, T/C (second compound 0.316 µM, first compound 0.00949 µM): 101% | viability, T/C (second compound 0.316 µM, first compound 0.03 µM): 90.6% | viability, T/C (second compound 0.316 µM, first compound 0.0949 µM): 91.4% | viability, T/C (second compound 0.316 µM, first compound 0.3 µM): 99.1% | viability, T/C (second compound 0.316 µM, first compound 0.949 µM): 86.8% | viability, T/C (second compound 0.316 µM, first compound 3 µM): 74.7% | viability, T/C (second compound 1 µM, first compound 0.00949 µM): 95.8% | viability, T/C (second compound 1 µM, first compound 0.03 µM): 89% | viability, T/C (second compound 1 µM, first compound 0.0949 µM): 104% | viability, T/C (second compound 1 µM, first compound 0.3 µM): 90.6% | viability, T/C (second compound 1 µM, first compound 0.949 µM): 93.6% | viability, T/C (second compound 1 µM, first compound 3 µM): 66.9%
